Source: the supplement of paper PMC10307832

Assays:
Assay in all cases: relative viability (nuclei count vs DMSO), 5 days (fraction); higher = more cells survive
[1] = compound: CN1CCN(CC1)C2=CC(=C(C=C2)NC3=NC(=C(S3)C(=O)C4=C(C=CC=C4Cl)Cl)N)OC [XMD14-99] + NC(=O)Nc1cc(-c2cccc(F)c2)sc1C(=O)N[C@H]1CCCNC1 [AZD7762] (partner 0.2 µM)
Outline: (§1)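 Values are medians from duplicate plates. Each reflects relative viability, defined as the nuclei count of treated wells over that of vehicle wells. Lung cancer cell lines in 1536-well plates were pin-tool dosed one day after seeding with one drug alone or with a fixed anchor-drug dose plus five library-drug doses (not always all listed) in √10 steps, then fixed, stained and imaged at 4× after 5 days.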

[2] = compound: N[C@@H]1CCCN(c2c(/C=C3\SC(=O)NC3=O)cccc2-c2ccccc2)C1 [AZD1208] + Nc1ncn([C@H]2C[C@H](O)[C@@H](CO)O2)c(=O)n1 [Decitabine] (partner 2 µM)
Outline: as §1

[3] = compound: CN1CCN(CC1)C2=CC(=C(C=C2)NC3=NC(=C(S3)C(=O)C4=C(C=CC=C4Cl)Cl)N)OC [XMD14-99] + CC(=O)c1c(C)c2cnc(Nc3ccc(N4CCNCC4)cn3)nc2n(C2CCCC2)c1=O [Palbociclib] (partner 0.5 µM)
Outline: as §1

[4] = compound: N[C@@H]1CCCN(c2c(/C=C3\SC(=O)NC3=O)cccc2-c2ccccc2)C1 [AZD1208] + C[C@@H](Oc1cc(-c2cnn(C3CCNCC3)c2)cnc1N)c1c(Cl)ccc(F)c1Cl [Crizotinib] (partner 1 µM)
Outline: as §1

Cell Line	relative viability ([1]; first compound 0.08 µM)	relative viability ([1]; first compound 0.8 µM)	relative viability ([1]; first compound 2.53 µM)	relative viability ([1]; first compound 8 µM)	relative viability ([2]; first compound 0.08 µM)	relative viability ([2]; first compound 0.253 µM)	relative viability ([2]; first compound 0.8 µM)	relative viability ([2]; first compound 2.53 µM)	relative viability ([2]; first compound 8 µM)	relative viability ([3]; first compound 0.08 µM)	relative viability ([3]; first compound 0.8 µM)	relative viability ([3]; first compound 2.53 µM)	relative viability ([3]; first compound 8 µM)	relative viability ([4]; first compound 0.08 µM)	relative viability ([4]; first compound 0.253 µM)	relative viability ([4]; first compound 0.8 µM)	relative viability ([4]; first compound 2.53 µM)	relative viability ([4]; first compound 8 µM)
NCI-H522	0.693	1.01	0.806	0.924	0.678	0.634	0.73	0.643	0.636	0.858	1.06	0.906	1.05					
SK-MES-1					0.373	0.352	0.33	0.364	0.301	0.345	0.343	0.372	0.223	1.07	0.944	0.909	0.974	0.78
Calu-6														0.615	0.952	0.672	0.711	0.758
CAL-12T	0.65	0.549	0.671	0.573						0.532	0.43	0.485	0.413	0.745	0.838	0.718	0.85	0.471
SK-LU-1					0.586	0.621	0.629	0.622	0.511	0.418	0.42	0.356	0.266	0.991	1.16	0.882	0.819	0.674
NCI-H1650					0.513	0.502	0.403	0.376	0.449	0.389	0.328	0.345	0.306	0.954	0.972	1.04	0.921	0.71
NCI-H1299														0.958	1	0.933	0.969	0.963
EBC-1														0.19	0.171	0.174	0.165	0.183
NCI-H2009					0.41	0.374	0.346	0.39	0.336	0.358	0.319	0.26	0.236	1.07	1.14	0.972	1.06	0.979
NCI-H2342	0.55	0.502	0.583	0.458	0.772	0.736	0.595	0.674	0.581	0.564	0.614	0.576	0.544					
NCI-H661					0.559	0.56	0.547	0.502	0.51	0.406	0.452	0.386	0.358	1.02	1		1	1.08
COR-L23					0.439	0.502	0.412	0.396	0.395	0.266	0.295	0.299	0.18	0.741	0.661	0.699	0.725	0.647
COR-L 105					0.734	0.672	0.633	0.628	0.538	0.402	0.418	0.433	0.344	0.806	0.766	0.717	0.881	0.68
NCI-H1793	0.512	0.298	0.389	0.298	0.447	0.448	0.509	0.463	0.363	0.286	0.316	0.314	0.284					
NCI-H596	1.16	1.01	1.29	1.15	0.847	1.01	0.901	0.902	0.756					0.853	1.04	0.837	0.955	0.711
A549					0.238	0.301	0.218	0.314	0.17					0.819	0.847	0.54	0.661	0.541
NCI-H520					0.566	0.507	0.473	0.456	0.428	0.174	0.186	0.239	0.222	0.77	0.833	0.711	0.582	0.439
NCI-H1563														0.877	0.81	0.928	0.924	0.8
NCI-H1395	0.387	0.462	0.363	0.38	0.724	0.785	0.714	0.719	0.685	0.58	0.678	0.688	0.602					
NCI-H2228										0.749	0.56	0.774	0.278	0.327	0.501	0.399		0.427
NCI-H2023					0.232	0.193	0.199	0.206	0.225	0.342	0.409	0.374	0.264	0.618	0.514	0.563	0.6	0.446
SW 900	0.633	0.681	0.71	0.548	0.456	0.407	0.382	0.395	0.444	0.57	0.567	0.514	0.359					
IA-LM														0.827	0.724	0.797	0.669	0.748
SW 1573					0.465	0.417	0.457	0.448	0.354	0.342	0.44	0.421	0.36	0.686	0.674	0.686	0.607	0.591
NCI-H1703	0.0933	0.124	0.143	0.118										0.365	0.53	0.579	0.594	0.461
